This data set relates to sulfur-oxidizing microbes. In words: Water toxicity detection with sulfur particles: electrical conductivity difference between inflow and outflow water, continuous reaction container. The following applies: 30 ppm test substance in the sample; EBCT 17 minute; 30° C.; ratio 0~1, about 1 = no toxicity, about 0 = high toxicity; 0.3 corresponds to issuing alarm. The class given is cell-based, Thiobacillus. The protocol: When the microbes attached around the sulfur particles are grown in the reaction container 130 of which conditions such as temperature is constant, the sulfur is oxidized at a constant speed. The following formula expresses a reaction of generation of sulfate ions and hydrogen ions in the processes. S+H2O+1.5O2−>SO4^2−+2H^+ΔG°′=−587.1 kJ/reaction
Referring to the above formula, the sulfur particles react with the microbes, the inflow water, and the oxygen in the reaction container 130 to generate a predetermined amount of sulfate ions. In case of non-toxic outflow water, the amount of sulfate ions thereof is increased by a predetermined amount in comparison with the inflow water. Since a degree of alkali in a river water is generally low, pH of the outflow water is decreased in comparison with the inflow water.
However, in case of the inflow water containing toxic substances, a degree of activation of the microbes attached around the sulfur particles is lowered, so that the sulfur particles can not be oxidized. […]
The reaction container is filled with a 30 mL of sulfur particles. […] While an empty bed contact time (EBCT) of the inflow water is changed among 7.1, 8.3, 10.0, 12.5, and 16.7 minutes, the pH and electrical conductivity of the inflow water and the outflow water are measured. The EBCT is calculated by dividing a volume (30 mL) of the sulfur particles with a flow rate. […]

In US8569045B2, “Water toxicity detecting apparatus and method using sulfur particles” (University-Industry Cooperation Foundation, Kangwon …, priority 2007, dated 2013) one finds ECDifference ratio data, which are given here for 1 substance.

For hexavalent chrome, the ECDifference ratio was 0.3.
